Series [1] has as its system MSTN. The series is classed as cell-based. The following applies: HepG2, (SBE)4-luc; MSTN 10 ng/ml, 8 h; MID-35 3 μM or SB-431542 10 μM, 1 h pretreatment; n = 3.
The subject of another series is TGF‐β. The class given is cell-based. The settings on record: HepG2, (SBE)4-luc; TGF-β 5 ng/ml, 8 h; MID-35 3 μM or SB-431542 10 μM, 1 h pretreatment; n = 3.
The subject of the next series is GDF‐11. The series is classed as cell-based. The following applies: HepG2, (SBE)4-luc; GDF-11 10 ng/ml, 8 h; MID-35 3 μM or SB-431542 10 μM, 1 h pretreatment; n = 3.
Series [2] deals with MSTN. In words: Smad2/3 nuclear localization induced by MSTN in C2C12 cells. The settings on record: MID-35 3 μM or SB-431542 10 μM preincubated 1 h with MSTN 10 ng/ml. The series is classed as cell-based.
A further series deals with ALK4. The following applies: ref [26]; cited from earlier work.
Another series relates to ALK7. The following applies: ref [26]; cited from earlier work.
Another series concerns ALK5. The settings on record: ref [26]; cited from earlier work.
The test system of series [3] is cancer cachexia model mice (LLC cells). In words: LLC cancer cachexia model mice, MID-35 and/or anamorelin. The class given is in vivo, C57BL/6J mice. The settings on record: MID-35 i.m. and/or anamorelin p.o.; 22 days after LLC transplantation; Figure 6B.
The conditions of series [4]: men who received 100 mg in a clinical trial; ref not given; cited from earlier work.
A further series relates to cancer cachexia patients. The following applies: cited from earlier work.
A further series deals with ghrelin receptor. The settings on record: ref [8]; cited from earlier work.
The next series deals with vascular function. The following applies: via binding to BMP9 and BMP10; ref [36]; cited from earlier work.
[5] abbreviates: patients with non-small-cell lung cancer, ref [9], [10], [11].

As for `NC(=O)c1ccc(-c2nc(-c3ccc4c(c3)OCO4)c(-c3ccccn3)[nH]2)cc1` [SB‐431542], the “inhibition of MSTN-induced transcriptional activity” value with MSTN [1] is recorded as “suppressed”. In addition, the “inhibition of TGF-β-induced reporter activity” value in the series on TGF‐β was “suppressed”. Also, the “inhibition of GDF-11-induced reporter activity” value in the series on GDF‐11 was “suppressed”. Further, the Smad2 nuclear accumulation result in the series on MSTN [2] is given as “completely blocked”. Moreover, in the series on ALK4, the ALK4 kinase inhibition result was “known kinase inhibitor”. In addition, the ALK7 kinase inhibition result with ALK7 is “known kinase inhibitor”. In the series with ALK5, the ALK5 kinase inhibition entry is recorded as “known kinase inhibitor”.

Regarding `CN(C)N(C)C(=O)[C@@]1(Cc2ccccc2)CCCN(C(=O)[C@@H](Cc2c[nH]c3ccccc23)NC(=O)C(C)(C)N)C1` [anamorelin], the “gastrocnemius weight per body weight without tumor” value in [3] is on record as “increased”. Moreover, the “plasma Cmax average” value in series [4] is 707 ± 307 ng/mL. In the series on cancer cachexia patients (clinical trial, cancer cachexia patients, ref not given), the lean body mass result was “increased lean body mass”. In addition, the appetite entry with cancer cachexia patients (patients with cancer cachexia, oral, ref [8]) is listed as “augments appetite”. Also, in the series with cancer cachexia patients (setting [5]), the QOL result is reported as “improvement of QOL” and the weight gain entry is given as “contribute to weight gain”. Further, the ghrelin receptor activity entry with ghrelin receptor is “ghrelin receptor agonist”.

B1: ActRIIB: activin receptor type IIB; binds to both BMP9 and BMP10 (protein, UniProt Q13705 19-512, looked up)
Activin receptor type-2B: SGRGEAETRECIYYNANWELERTNQSGLERCEGEQDKRLHCYASWRNSSGTIELVKKGCWLDDFNCYDRQECVATEENPQVYFCCCEGNFCNERFTHLPEAGGPEVTYEPPPTAPTLLTVLAYSLLPIGGLSLIVLLAFWMYRHRKPPYGHVDIHEDPGPPPPSPLVGLKPLQLLEIKARGRFGCVWKAQLMNDFVAVKIFPLQDKQSWQSEREIFSTPGMKHENLLQFIAAEKRGSNLEVELWLITAFHDKGSLTDYLKGNIITWNELCHVAETMSRGLSYLHEDVPWCRGEGHKPSIAHRDFKSKNVLLKSDLTAVLADFGLAVRFEPGKPPGDTHGQVGTRRYMAPEVLEGAINFQRDAFLRIDMYAMGLVLWELVSRCKAADGPVDEYMLPFEEEIGQHPSLEELQEVVVHKKMRPTIKDHWLKHPGLAQLCVTIEECWDHDAEARLSAGCVEERVSLIRRSVNGTTSDCLVSLVTSVTNVDLPPKESSI
With B1, in the series with vascular function, the vascular side-effects result is recorded as “vascular side‐effects”.

Values taken from publication PMC9530881 (Cancer Science, 2022).
